Measurements published in patent EP0011400A1, “An aminoglycosidic antibiotic salt” (priority 1978, dated 1980).
Counter-ions that a name gives are not always drawn.

Assays:
[1] = system: Male Hartley guinea pigs; experiment: Example 8: toxicity of tobramycin and bekanamycin salts on intramuscular injection (deaths, pinna reflex); type: in vivo; conditions: for Pinna Reflex Lost: * including dead cases; for Number died/ Number tested: guinea pigs, intramuscular
Experimental: The second group was injected with a solution of tobramycin sulfate in water for injection in an equal dose. […] After injection with the final dose, the pinna reflex of each subject guinea pig to a pure tone having a frequency of 15,000 Hz was determined. […] Both group were then subjected to determination of their pinna reflex to a 15,000^-Hz pure tone.

[2] = system: Male Hartley guinea pigs; experiment: Example 7: toxicity of dibekacin salts on intramuscular injection for 21 days (deaths, pinna reflex, BUN); type: in vivo; conditions: for Number of guinea pigs which lost pinna reflex 10days / Number of guinea pigs which lost pinna reflex 14days / Number of guinea pigs which lost pinna reflex 17days / Number of guinea pigs which lost pinna reflex 21days: 180 mg (as a free base)/kg/day intramuscular, 20,000 Hz pure tone; for Number of guinea pigs which lost pinna reflex 21days: * including dead cases; for Number died/ Number tested: guinea pigs, intramuscular, 21 consecutive days; for Number died/ Number tested / BUN: 180 mg (as a free base)/kg/day; for BUN: sera, 24 hours after final dose; for Number of guinea pigs which lost pinna reflex 21days / BUN: 21 days
Experimental: The second group was injected with an equal dose of a solution of dibekacin sulfate in water for injection. […] During the intramuscu]ar injection, the pinna reflex of each subject guinea pig to a pure tone having a frequency of 20,000 Hz was determined. Twenty-four hours after the injection with the final dose, the level of BUN in sera was measured.

[3] = system: Pseudomonas aeruginosa E-2; experiment: Example 10: survival of mice infected intraperitoneally; type: in vivo; conditions: ICR-JCL mice, intramuscular; for Percentage Survival (%) Dosage 0.0625 mg: 0.0625 mg (as a free base)/mouse; for Percentage Survival (%) Dosage 0.0625 mg / Percentage Survival (%) Dosage 0.25 mg / Percentage Survival (%) Dosage 1 mg: one week after the injection; for Percentage Survival (%) Dosage 1 mg: 1 mg (as a free base)/mouse; for ED50: Pseudomonas aeruginosa, E2, im, 168 h, calculated by Ritchfield-Wilcoxon technique, the two values not significantly different
Experimental: The second group was injected with a solutio of dibekacin sulfate in sterile physiological saline solution in the above indicated doses. […] The percentage survival of each group was checked one week after the injection.

[4] = Solubility of the salt powder in water and organic solvents; type: physicochemical
[5] = system: Male Hartley guinea pigs; experiment: Example 9: toxicity of kanamycin A salts on intramuscular injection for 14 days (deaths, pinna reflex, BUN); type: in vivo; conditions: 400 mg (as a free base)/kg/day, 14 consecutive days
Experimental: The second group was injected with a solution of kanamycin A sulfate in water for injection in an equal dose. The third group was injected with a solution of a mixture of kanamycin A sulfate and potassium salt of D-glucaro-1,5-lactam (in a molar ratio of […]) in water for injection in an eaual dose.

[6] = pH of an aqueous solution of the salt; type: physicochemical
[7] = system: Male Hartley guinea pigs; experiment: Example 6: toxicity of gentamicin salts on intramuscular injection for 14 days (deaths, pinna reflex, BUN, CRE); type: in vivo; conditions: 100 mg (as a free base)/kg/day; for CRE: creatine in sera; for CRE / BUN: 24 hours after the pinna reflex determination; for Number died/ Number tested: 14 consecutive days; for BUN: sera
Experimental: The amount of the test compounds administered was calculated on the basis of the free base (i.e., free gentamicin). […] The second group was injected with an equal dose of a solution of gentamicin sulfate in water for injection. […] After injection with the final dose, each group was subjected to a pure tone having a frequency of 20,000 Hz to determine the pinna reflex of the subject guinea pigs. Twenty-four hours after the determination, the levels of blood urea nitrogen (BUN) and creatine (CRE) in sera were measured.

[8] = system: Male Hartley guinea pigs; experiment: Example 11: pinna reflex after intramuscular injection of gentamicin salts for 21 days; conditions: 80 mg (as a free base)/kg/day, 20,000 Hz pure tone after final dose
Experimental: Male Hartley guinea pigs weighing 300 g on average were used as the test animals in three groups each consisting of 6 guinea pigs which were subjected to intramuscular injection of the following substances for 21 consecutive days. The first group was injected with a solution of the salt of gentamicin and D-glucaro-1,5-lactam in water for injection in a dose of 80 mg (as a free base)/kg/day. The second group was injected with a solution of gentamicin sulfate in water for injection in an equal dose. The third group was a control which was injected with distilled water.

[9] = 250 mg (as a free base)/kg/day, 14 days, 15,000 Hz pure tone
[10] = 250 mg (as a free base)/kg/day, 14 consecutive days
[11] = 120 mg (as a free base)/kg/day, 16 days, 15,000 Hz pure tone after final dose
[12] = guinea pigs, intramuscular, 14 days, 20,000 Hz pure tone after final dose

NC[C@H]1O[C@H](O[C@H]2[C@H](O)[C@@H](O[C@H]3O[C@H](CO)[C@@H](O)[C@H](N)[C@H]3O)[C@H](N)C[C@@H]2N)[C@H](N)[C@@H](O)[C@@H]1O [Bcanamycin sulfate, bekanamycin sulfate]
Pinna Reflex Dull [1, 9]: 1/4
Pinna Reflex Lost [1, 9]: 3/4*
Number died/ Number tested [1, 10]: 2/6

NCC1CCC(N)C(OC2C(N)CC(N)C(OC3OC(CO)C(O)C(N)C3O)C2O)O1 (stereo not shown) [Dibekacin sulfate, dibekacin sulfate, reference compound]
Number of guinea pigs which lost pinna reflex 10days [2]: 0/6
Number of guinea pigs which lost pinna reflex 14days [2]: 3/6
Number of guinea pigs which lost pinna reflex 17days [2]: 3/6
Number of guinea pigs which lost pinna reflex 21days [2]: 5/6*
Number died/ Number tested [2]: 1/6
BUN [2]: 41.8 ± 26.9 mg/dL
Percentage Survival (%) Dosage 0.0625 mg [3]: 0%
Percentage Survival (%) Dosage 0.25 mg [3]: 30%
Percentage Survival (%) Dosage 1 mg [3]: 100%
ED50 [3]: 15.7 mg/kg

NC[C@H]1O[C@H](O[C@H]2[C@H](O)[C@@H](O[C@H]3O[C@H](CO)[C@@H](O)[C@H](N)[C@H]3O)[C@H](N)C[C@@H]2N)[C@H](N)[C@@H](O)[C@@H]1O [Glucarolactam salt of bekanamycin, Salt of bekanamycin and D-glucaro-1,5-lactam]
Pinna Reflex Dull [1, 9]: 3/6
Pinna Reflex Lost [1, 9]: 3/6
Number died/ Number tested [1, 10]: 0/6
solubility in ethanol, acetone, ethyl acetate and chloroform [4]: very slightly soluble
solubility in water [4]: freely soluble

NC[C@@H]1CC[C@@H](N)[C@@H](O[C@H]2[C@H](O)[C@@H](O[C@H]3O[C@H](CO)[C@@H](O)[C@H](N)[C@H]3O)[C@H](N)C[C@@H]2N)O1 [Glucarolactam salt of dibekacin, Salt of dibekacin and D-glucaro-1,5-lactam]
Number of guinea pigs which lost pinna reflex 10days [2]: 0/6
Number of guinea pigs which lost pinna reflex 14days [2]: 0/6
Number of guinea pigs which lost pinna reflex 17days [2]: 0/6
Number of guinea pigs which lost pinna reflex 21days [2]: 3/6
Number died/ Number tested [2]: 0/6
BUN [2]: 35.7 ± 13.3 mg/dL
Percentage Survival (%) Dosage 0.0625 mg [3]: 0%
Percentage Survival (%) Dosage 0.25 mg [3]: 20%
Percentage Survival (%) Dosage 1 mg [3]: 100%
ED50 [3]: 19.1 mg/kg
solubility in ethanol, acetone, ethyl acetate and chloroform [4]: very slightly soluble
solubility in methanol [4]: sparingly soluble
solubility in water [4]: freely soluble

NC[C@H]1O[C@H](O[C@H]2[C@H](O)[C@@H](O[C@H]3O[C@H](CO)[C@@H](O)[C@H](N)[C@H]3O)[C@H](N)C[C@@H]2N)[C@H](O)[C@@H](O)[C@@H]1O [Glucarolactam salt of kanamycin, Salt of kanamycin A and D-glucaro-1,5-lactam]
solubility in ethanol, acetone, ethyl acetate and chloroform [4]: very slightly soluble
solubility in water [4]: freely soluble
Number died/ Number tested [5]: 0/6

NC[C@H]1O[C@H](O[C@H]2[C@H](O)[C@@H](O[C@H]3O[C@H](CO)[C@@H](O)[C@H](N)[C@H]3O)[C@H](N)C[C@@H]2N)[C@H](O)[C@@H](O)[C@@H]1O [Kanamycin sulfate, kanamycin A sulfate, reference compound]
Number died/ Number tested [5]: 0/6

NCC1OC(OC2C(N)CC(N)C(OC3OC(CO)C(O)C(N)C3O)C2O)C(N)CC1O (stereo not shown) [Tobramycin sulfate, tobramycin sulfate]
Pinna Reflex Dull [1, 11]: 2/9
Pinna Reflex Normal [1, 11]: 7/9
Number died/ Number tested ([1]; 120 mg (as a free base)/kg/day, 16 consecutive days): 0/9

Salt of gentamicin and D-glucaro-1,5-lactam [Glucarolactam salt of gentamicin]
pH of an aqueous solution of the salt [6]: 6.7
CRE ([7]; 14 days): 1.20±0.51
Number died/ Number tested ([7]; guinea pigs, intramuscular): 2/9
Pinna Reflex Lost [7, 12]: 1/7
Pinna Reflex Normal [7, 12]: 6/7
BUN ([7]; 14 days): 64.6 ± 43.97 mg/dL
solubility in ethanol, acetone, ethyl acetate and chloroform [4]: very slightly soluble
solubility in methanol [4]: sparingly soluble
solubility in water [4]: freely soluble
Pinna Reflex Dull [8]: 2/6
Pinna Reflex Normal [8]: 3/6
Pinna Reflex Lost ([8]; * including one guinea pig dead on the 21th day): 1/6

gentamicin sulfate [reference compound]
CRE ([7]; 14 days): 1.80±0.57
Number died/ Number tested ([7]; guinea pigs, intramuscular): 7/9
Pinna Reflex Dull [7, 12]: 2/5
Pinna Reflex Lost [7, 12]: 3/5
BUN ([7]; 14 days): 92.3 ± 50.42 mg/dL
